According to publication PMC10601554 (Protein Science : A Publication of the Protein Society, 2023):

Experiments:
[1] = target: T1, RBP-NN-His/RBP-CN-Strep co-expressed heterodimer (Thermotoga maritima, UniProt Q9X053); assay: differential scanning calorimetry; assay type: binding; details: 10 mM sodium phosphate, 50 mM NaCl, pH 7.8; 50 μM protein, 0.5 mM ribose; irreversible unfolding
T1 construct: gene TM_0958; halves co-expressed in E. coli BL21(DE3); N-terminal His6 tag on RBP-N (border also printed as 153), N-terminal Strep-tag on RBP-C; lacks C-terminal cross-over strands; oligomeric state not determined

[2] = target: T2, RBP-N/RBP-Trunc mixed heterodimer (Thermotoga maritima, UniProt Q9X053); assay: isothermal titration calorimetry; assay type: binding; details: 10 mM sodium phosphate, 50 mM NaCl, pH 7.8, 20°C; 100 μM protein; 1:1 model
T2 construct: gene TM_0958; separately expressed halves mixed equimolar in vitro; E. coli BL21(DE3); His tag likely; dimer of heterodimers

[3] = target: T3, RBP-NN-His/RBP-TruncIIN-Strep co-expressed heterodimer (Thermotoga maritima, UniProt Q9X053); assay: differential scanning calorimetry; assay type: binding; details: 10 mM sodium phosphate, 50 mM NaCl, pH 7.8; 50 μM protein, 0.5 mM ribose; irreversible unfolding; possible residual ribose carried over
T3 construct: gene TM_0958; halves co-expressed in E. coli BL21(DE3); N-terminal His6 tag on RBP-N (border also printed as 153), N-terminal Strep-tag on RBP-TruncII

[4] = target: T2, RBP-N/RBP-Trunc mixed heterodimer; assay: differential scanning calorimetry; assay type: binding; details: 10 mM sodium phosphate, 50 mM NaCl, pH 7.8; 50 μM protein, 0.5 mM ribose; irreversible unfolding
[5] = target: RBP‐N/RBP‐Trunc mixed heterodimer (first generation) (Thermotoga maritima) (UniProt Q9X053); assay: SEC-MALS; single purified proteins, and RBP‐N and RBP‐Trunc purified one by one and mixed in an equimolar ratio; Superdex 75 Increase 10/300 GL, 10 mM sodium phosphate, 50 mM sodium chloride, 0.02% sodium azide, pH 7.8, room temperature, 0.8 mL min^-1
[6] = target: the molecule itself; assay: as above

T2 sequence (Q9X053 entry or part of it, one chain of several): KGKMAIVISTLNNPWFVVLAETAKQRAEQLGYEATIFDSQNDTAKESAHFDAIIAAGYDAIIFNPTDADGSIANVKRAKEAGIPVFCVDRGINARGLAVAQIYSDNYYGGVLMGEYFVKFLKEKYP
T1 sequence (Q9X053 entry or part of it, one chain of several): as above
T3 sequence (Q9X053 entry or part of it, one chain of several): as above

OC1OC[C@@H](O)[C@@H](O)[C@H]1O (stereo partly drawn) [ribose]
dTm [1]: 15.1 °C
Kd [2]: 6.8 ± 0.7 µM
dTm [3]: 9.1 °C
dTm [4]: ~ 14 °C

RBP‐N/RBP‐Trunc mixed heterodimer (first generation) (from UniProt Q9X053 30-153; Q9X053 142-310) (complex)
stoichiometry N [5]: 2

B1: RBP‐Trunc (truncated T. maritima RBP, residues 142–310, first generation) (domain or fragment, Thermotoga maritima, UniProt Q9X053 142-310, looked up)
chain: MGEYFVKFLKEKYPDAKEIPYAELLGILSAQPTWDRSNGFHSVVDQYPEFKMVAQQSAEFDRDTAYKVTEQILQAHPEIKAIWCGNDAMALGAMKACEAAGRTDIYIFGFDGAEDVINAIKEGKQIVATIMQFPKLMARLAVEWADQYLRGERSFPEIVPVTVELVTRE
notes: also called RPB‐Trunc
stoichiometry N [6]: 2
